Reference: ChEMBL document CHEMBL1156349, “Junceol A, a new sesquiterpenoid from the sea pen Virgularia juncea” (2001)
In brackets after ≈: the same amount, converted by molar mass.

Each compound was assayed on P388 (assay: Cytotoxicity against mouse P388 cells by MTT assay). Conditions: read-out: ED50 (the source's name).
Type: functional

SMILES	EC50 [µg/mL]
C=C1CC[C@H](C(C)C)[C@@H]2[C@H]1[C@@H]1CC(=C)[C@@H](O)CC[C@](C)(O)[C@H]2O1 [CLADIELLISIN]	2 (≈ 6.24 µM)
CC(=O)OC(C)(C)[C@H]1C=C2[C@@H](C)CC[C@@H](O)[C@]2(C)CC1 [JUNCEOL A]	5.1 (≈ 18.2 µM)
C=C1CC[C@H](C(C)C)[C@@H]2[C@H]1[C@H]1C[C@](C)(O)[C@@H](O)CC[C@@](C)(O)[C@@H]2O1 [SCLEROPHYTIN A]	2.3 (≈ 6.79 µM)
